Data from patent publication US4055640A, “Compositions and methods for controlling the growth of bacteria, fungi and algae using certain derivatives of N-(2,2-dichlorovinyl)salicylamides” (Nippon Kayaku Co., Ltd., priority 1975, dated 1977).

Assays:
[1] = test system: seedling blight of rice plant (pathogen Fusarium sp. and Rhizoctonia sp.); test: Exterminating test on seedling blight of rice plant (Experimental Example 1); assay type: in vivo; conditions: for Percentage of healthy seedlings at 0.25 g/box: soil, read-out: Percentage of healthy seedlings
Experimental: Exterminating test on seedling blight of rice plant Nursery boxes (60 × 30 × 3 cm) were filled with soil which were contaminated with pathogen (Fusarium sp. and Rhizoctonia sp.) The dust in which the present compound was contained in a ratio of 5% by weight was added in the box in a ratio of 5 grams per box and mixed well with soil. Thereafter, seeds of rice plant (variety: Nihonbare) were sowed in drills at a rate of 0.3 liter per box and grown up in a lighting chamber at 17° C. After 7 days from the sowing, the boxes were carried out in the field. Furthermore, 10 days thereafter the observations were made. Four percent (4%) dust of 3-hydroxy-5-methyl isoxazol (hereinafter referred to as hydroxyisoxazol) on the market was used as a control and tested by the same method. The test results are shown in Table 2 with a "percentage of healthy seedlings". The percentage of healthy seedlings was calculated as follows: […]

[2] = test system: Rhizoctonia solani (damping-off of cucumber); test: Exterminating test on damping-off of cucumber (Experimental Example 3); assay type: in vivo; conditions: soil drench 50 ml per pot, 10 days; for pest or weed control at 1000 ppm: Rhizoctonia solani, soil, 240 h, 1,000 ppm, read-out: Percentage of healthy seedlings; for Percentage of healthy seedlings: 1,000 ppm
Experimental: Exterminating test on damping-off of cucumber
The pots (diameter, 12 cm) were filled with field soil and then soil infected by adding Rhizoctonia solani in an amount of 5 grams per pot uniformly into the pots. Thereafter, 10 seeds of cucumber (variety: Azumamidori) were sown in each pot.
Eighty percent (80%) wettable powder of the present invention was diluted with water to obtain a suspension and each pot was drenched with the suspension in an amount of 50 milliliters. Then, the pots were transferred to the greenhouse. Fifty percent (50%) wettable powder of pentachloronitro benzene (hereinafter referred to as PCNB) on the market was used as a control and tested by the same method. After 10 days of the inoculation, degrees attacked by the pathogen were observed and a "Percentage of healthy seedlings" was calculated. The "Percentage of healthy seedlings" was calculated as follows: [formula]

[3] = test system: Fusarium wilt of cucumber; test: Exterminating test on Fusarium wilt of cucumber (Experimental Example 4); assay type: in vivo, Fusarium oxysporum f, cucumerinum; conditions: 500 ppm, soil drench 100 ml per pot, two weeks; for pest or weed control at 500 ppm: Fusarium, soil, 336 h, read-out: Percentage of healthy seedlings
Experimental: Exterminating test on Fusarium wilt of cucumber Twenty (20) grams of infected soil was added uniformly into each pot which was filled with steam sterilized field soil, then 18 seeds of cucumber (variety; Tokiwazibai) were sowed in each pot. Eighty percent (80%) wettable powder of the present invention was diluted with water to obtain a suspension, and each pot was drenched with the suspension in an amount of 100 ml. Fifty percent (50%) wettable powder of methyl-1-(butylcarbamoyl) 2-benzimidazol carbamate (hereinafter referred to as Benlate) on the market was used as a control and tested by the same method. After two weeks of planting, degrees attacked by the pathogen was observed and a "percentage of healthy seedlings" was calculated as follows: [formula]

[4] = test system: Aspergillus niger, Penicillium citrinum, Cladosporium harbarum and chaetomium globosum; test: Degree of growth inhibition of fungi on treated beach plates (Example 25); assay type: cell-based; set-up: scale not given here; conditions: numerical rating, 2 weeks
Experimental: The emulsifiable concentrates which were prepared by Example 20 were diluted with water 400 times and 800 times to form emulsions.
(§1) The square plates of beach of which a side was 5 cm long and thickness was 5 mm were dipped into the emulsion for 2 minutes and dried for 24 hours at room temperature.
(§2) The square plates were placed on the surface of agar plates. The suspensions which contained spores of Aspergillus niger, Penicillium citrinum, Cladosporium harbarum and chaetomium globosum were respectively sprayed on the agar plates and the square plates.
The test fungi were cultivated in the incubator at the humidity of 95% and the temperature of 28° C for 2 weeks. The degree of growth inhibition is defined in terms of the following numerical ratings.

summer orange seedlings = test: Phytotoxicity on summer orange seedlings (Experimental Example 6); assay type: in vivo
Experimental: (§3) Exterminating test on citrus canker. 4-year-old summer orange seedlings, planted in unglazed pots having a diameter of 20 cm, were employed in this test. Eighty percent (80%) wettable powder of the present invention was diluted with water, and sprayed over the seedlings in an amount of 50 ml per pot. The leaves of the seedlings were inoculated Xanthomonas citri by means of a needle. After the inoculation, the seedlings were maintained in a moist chamber at 25° C for 24 hours. Then the pots were transferred into the greenhouse. Streptomycin 20% wettable powder was used as a control, and tested by the same method. After 2 weeks after the inoculation, degrees of disease attack were observed, and an "Effect Index" was calculated as follows: [formula]

[5] = test system: Xanthomonas citri (citrus canker); test: Exterminating test on citrus canker (Experimental Example 6); assay type: in vivo; conditions: for pest or weed control at 1000 ppm: read-out: Effect Index, 1,000 ppm, 2 weeks after inoculation
Experimental: as §3

[6] = test system: Cladosporium cucumerinum (cucumber scab); test: Exterminating test on cucumber scab (Experimental Example 2); assay type: in vivo; set-up: scale not given here; conditions: 5 days after inoculation
Experimental: Exterminating test on cucumber scab
(§4) The cucumber seeds (variety: Sagamihanjiro) were sown in pots (diameter 18 cm). Eighty percent (80%) wettable powder (contents of active compound: 80%) of the present invention was diluted with water to obtain a suspension. The suspension was sprayed over the cucumber seedlings of the stage of 3-4 leaves in an amount of 20 ml per pot. After 24 hours, these pots were inoculated by means of spray of spore suspension of Cladosporium cucumerinum. The thus-inoculated seedlings were placed in a moist chamber at 20° C for 24 hours. The pots were continuously kept in a greenhouse at 20° C. The following wettable powders on the market were used as controls.
70% wettable powder of 1,2-bis (3-methoxy carbonyl-2-thioureid) benzene (hereinafter referred to as "thiophanate methyl") on the market.
75% wettable powder of ethylene bis (dithiocarbamic acid) manganese (hereinafter referred to as "maneb") on the market. After 5 days of the inoculation, degrees attached by the pathogen were observed and the results were shown in Table 3 with an "Infected Index". The "Infected Index" was calculated as follows: [formula] A : Number of leaves which were killed by hard attack B : Number of leaves severely attacked
C : number of leaves slightly attacked
D : number of healthy leaves

[7] = test system: cucumber seedlings (variety: Sagamihanjiro); test: Phytotoxicity on cucumber seedlings (Experimental Example 2); assay type: in vivo
Experimental: as §4

[8] = test system: Aspergillus niger, Penicillium citrinum, Cladosporium harbarum and chaetomium globosum; test: Degree of growth inhibition of fungi on treated beach plates (Example 17); assay type: cell-based; set-up: scale not given here; conditions: numerical rating, 2 weeks
Experimental: The emulsifiable concentrates which were prepared by Example 10 were diluted with water 400 times and 800 times to form emulsions.
as §1, §2
The test fungi were cultivated in the incubator at the humidity of 95% and the temperature of 28° C for 2 weeks.
The degree of growth inhibition is defined in terms of the following numerical ratings.

[9] = test system: seedlings of kidney beans (variety: Orient); test: Phytotoxicity on kidney beans (Experimental Example 5); assay type: in vivo; conditions: 500 ppm
[10] = test system: botrytis cinerea (gray mold); test: Exterminating test on gray mold of tomato (Experimental Example 5); assay type: in vivo; conditions: 500 ppm, 48 hours after inoculation, kidney bean leaves
Experimental: Exterminating test on gray mold of tomato The seedlings of kidney beans (variety: Orient) of 5-6 leaves stage were employed in this test. Eighty percent (80%) wettable powder of the present invention was diluted with water and sprayed over the seedlings in an amount of 10 ml per pot. The leaves were cut from the plant at 24 hours after spraying, and placed in the petri dishes (12 cm in diameter). Thereafter disks (5 mm in diameter) were cut with a cork borer from potato dextrose agar on which the pathogen (botrytis cinerea) was cultured. The disks were placed on the leaves. The dishes were placed in such a moistural condition as to cause the pathogen to propagate. Thiophanate methyl 70% wettable powder on the market was used as a control and tested by the same method. After forty eight (48) hours after inoculation, diameters of the lesions were observed, and an "Effect Index" was calculated as follows; [formula]

[11] = 408 h, 0.25g/box a.i., 5% dust mixed with soil

Row | SMILES | Percentage of healthy seedlings at 0.25 g/box [1, 11] [%] | pest or weed control at 1000 ppm [2] [%] | pest or weed control at 500 ppm [3] [%] | other results
1 | CC(C)COC(=O)Oc1ccccc1C(=O)NC=C(Cl)Cl [compound 18] | 72.1 | 100 | 42 | Degree of growth inhibition ([4]; 0.0125 %): 2; Degree of growth inhibition ([4]; 0.025 %): 3
2 | [H]/N=C(/N)N[C@H]1[C@H](O)[C@@H](O)[C@H](O[C@@H]2O[C@@H](C)[C@](O)(C=O)[C@H]2O[C@@H]2O[C@@H](CO)[C@H](O)[C@@H](O)[C@@H]2NC)[C@@H](N/C(N)=N\[H])[C@@H]1O [Streptomycin, reference compound] |  |  |  | Phytotoxicity (summer orange seedlings; 200 ppm): Nil; pest or weed control at 200 ppm ([5]; Xanthomonas citri, 336 h, read-out: Effect Index, 200 ppm, 2 weeks after inoculation): 28.7%
3 | COc1ccccc1C(=O)NC=C(Cl)Cl [compound 15] | 70.2 | 60 | 51.2 | Infected Index ([6]; 500 ppm): 8.9; Phytotoxicity ([7]; 500 ppm): Nil
4 | O=C(NC=C(Cl)Cl)c1cc(Br)ccc1[O-].O=C(NC=C(Cl)Cl)c1cc(Br)ccc1[O-].[Cu+2] [compound 27] |  |  |  | Percentage of healthy seedlings [2]: 85%; Percentage of healthy seedlings [3]: 58.0%
5 | COC(=O)Oc1ccccc1C(=O)NC=C(Cl)Cl [Compound No. 16, O-methoxycarbonyl-N-(2,2-dichlorovinyl) salicylamide] | 71.5 | 100 | 38.2 | 
6 | CC(=O)Oc1c(Cl)cc(Cl)cc1C(=O)NC=C(Cl)Cl [compound 32] | 69.8 | 75 | 73 | 
7 | CC(=O)Oc1c(C(=O)NC=C(Cl)Cl)cccc1[N+](=O)[O-] [compound 35] | 71.2 | 95 | 79 | 
8 | O=C(NC=C(Cl)Cl)c1cc(Cl)cc(Cl)c1O [compound 33] | 70.4 |  | 48 | 
9 | Cc1ccc(C(=O)NC=C(Cl)Cl)c(O)c1 [compound 5] | 62 | 80 | 58.9 | Phytotoxicity (summer orange seedlings; 1,000 ppm): Nil; pest or weed control at 1000 ppm ([5]; Xanthomonas citri, 336 h): 98.2%; Infected Index ([6]; 500 ppm): 10.7; Phytotoxicity ([7]; 500 ppm): Nil
10 | O=C(NC=C(Cl)Cl)c1cccc([N+](=O)[O-])c1O [compound 31] | 70.2 | 85 | 46 | 
11 | Cc1cccc(C(=O)NC=C(Cl)Cl)c1O [compound 4] | 76.6 | 90 | 68.7 | 
12 | S=C([S-])NCCNC(=S)[S-].[Mn+2] [Maneb, ethylene bis (dithiocarbamic acid) manganese, reference compound] |  |  |  | Infected Index ([6]; 1,500 ppm): 12.5; Phytotoxicity ([7]; 1,500 ppm): Nil
13 | O=C(NC=C(Cl)Cl)c1cc(Br)ccc1O [compound 3] | 65.3 | 70 | 62.4 | Phytotoxicity (summer orange seedlings; 1,000 ppm): Nil
14 | O=C(NC=C(Cl)Cl)c1ccccc1OC(=O)C(Cl)Cl [compound 14] | 70.8 | 95 | 62.8 | Phytotoxicity (summer orange seedlings; 1,000 ppm): Nil; pest or weed control at 1000 ppm ([5]; Xanthomonas citri, 336 h): 73.2%; Infected Index ([6]; 500 ppm): 7.9; Phytotoxicity ([7]; 500 ppm): Nil
15 | Cc1cc(O)no1 [Hydroxyisoxazol, 3-hydroxy-5-methyl isoxazol, reference compound] |  |  |  | Percentage of healthy seedlings at 0.2 g/box ([1]; 408 h, 0.20g/box a.i., 4% dust on the market (control)): 70.6%
16 | CCCCCCCCCCCC(=O)Oc1ccccc1C(=O)NC=C(Cl)Cl [compound 12] | 65 | 70 | 53.4 | 
17 | O=C(NC=C(Cl)Cl)c1ccccc1[O-].O=C(NC=C(Cl)Cl)c1ccccc1[O-].[Mn+2] [compound 28] |  |  |  | Phytotoxicity (summer orange seedlings; 1,000 ppm): Nil; Percentage of healthy seedlings ([1]; 0.25g/box a.i., 5% dust mixed with soil): 73.0%; Effect Index ([5]; 1,000 ppm, 2 weeks after inoculation): 73.6; Percentage of healthy seedlings [2]: 100%; Percentage of healthy seedlings [3]: 57.0%; Degree of growth inhibition ([8]; 0.0125 %): 3; Degree of growth inhibition ([8]; 0.025 %): 3
18 | O=C(NC=C(Cl)Cl)c1cc(Br)ccc1O [compound 22] |  |  |  | Phytotoxicity (summer orange seedlings; 1,000 ppm): Nil
19 | COC(=O)NC(=S)Nc1ccccc1NC(=S)NC(=O)OC [Thiophanate methyl, 1,2-bis (3-methoxy carbonyl-2-thioureid) benzene, reference compound] |  |  |  | Phytotoxicity [9]: Nil; Effect Index [10]: 82; Infected Index ([6]; 500 ppm): 14.6; Phytotoxicity ([7]; 500 ppm): Nil
20 | CC(=O)Oc1ccc(Br)cc1C(=O)NC=C(Cl)Cl [compound 8] | 71.3 | 75 | 73.3 | Degree of growth inhibition ([4]; 0.0125 %): 3; Degree of growth inhibition ([4]; 0.025 %): 3
